Data published in patent US10285989B2, “Pyrimidinone amide compounds as PDE2 inhibitors” (Merck Sharp & Dohme Corp., priority 2015, dated 2019).
Where two headings read alike, the source gives them in different places.

Key:
[1] = target: Rhesus PDE2A3 (Macaca mulatta, UniProt B3VTJ2); experiment: PDE2 fluorescence polarization (IMAP FP) inhibition assay, rhesus PDE2A3; format: biochemical, rhesus macaque
[2] = target: human PDE2A1 (Homo sapiens (Human), UniProt O00408); experiment: PDE2 IMAP FP inhibition assay, human PDE2A1 (selectivity panel format); format: biochemical
Method in brief: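 IMAP fluorescence polarization assay; substrate 50 nM FAM-cAMP with 1000 nM cGMP, enzyme at ~20% conversion, in 10 mM Tris pH 7.2, 10 mM MgCl2, 1 mM DTT, 0.01% Tween-20. 60 min room temperature, stopped with IMAP binding reagent, 1 h, then parallel/perpendicular fluorescence read.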

[3] = target: P-glycoprotein (P-gp) (Homo sapiens (Human), UniProt P08183); experiment: P-gp transport, experimental BA/AB ratio, human; format: in vitro ADME; settings: LLC-PK1, 1 μM substrate concentration
Source text: (§1) See Doan et al. “Passive permeability and P-glycoprotein-mediated efflux differentiate central nervous system (CNS) and non-CNS marketed drugs”, J. Pharm. Exper. […] Desirable human BA/AB ratio is less than 2.0. […] See, for example, Desai, et al. Integration of in Silico and in Vitro Tools for Scaffold Optimization during Drug Discovery: Predicting P-glycoprotein Efflux” Mol. Pharmac.

[4] = target: P-glycoprotein (P-gp, rat Mdr1a) (Rattus norvegicus, UniProt Q6PSM0); experiment: P-gp transport, experimental BA/AB ratio, rat LLC-Mdr1a; format: in vitro ADME; settings: LLC-PK1; rat LLC-Mdrla; 1 μM substrate concentration
Source text: as §1

[5] = Lab A, read-out: Rhesus PDE2 Ki (nM) - Lab A
[6] = Lab A, read-out: Human PDE2 Ki (nM) - Lab A
[7] = Lab B, read-out: Rhesus PDE2 Ki (nM) - Lab B
[8] = Lab B, read-out: Human PDE2 Ki (nM) - Lab B

Chain of human PDE2A1 (O00408 other isoform, or with tags, fused parts or gaps): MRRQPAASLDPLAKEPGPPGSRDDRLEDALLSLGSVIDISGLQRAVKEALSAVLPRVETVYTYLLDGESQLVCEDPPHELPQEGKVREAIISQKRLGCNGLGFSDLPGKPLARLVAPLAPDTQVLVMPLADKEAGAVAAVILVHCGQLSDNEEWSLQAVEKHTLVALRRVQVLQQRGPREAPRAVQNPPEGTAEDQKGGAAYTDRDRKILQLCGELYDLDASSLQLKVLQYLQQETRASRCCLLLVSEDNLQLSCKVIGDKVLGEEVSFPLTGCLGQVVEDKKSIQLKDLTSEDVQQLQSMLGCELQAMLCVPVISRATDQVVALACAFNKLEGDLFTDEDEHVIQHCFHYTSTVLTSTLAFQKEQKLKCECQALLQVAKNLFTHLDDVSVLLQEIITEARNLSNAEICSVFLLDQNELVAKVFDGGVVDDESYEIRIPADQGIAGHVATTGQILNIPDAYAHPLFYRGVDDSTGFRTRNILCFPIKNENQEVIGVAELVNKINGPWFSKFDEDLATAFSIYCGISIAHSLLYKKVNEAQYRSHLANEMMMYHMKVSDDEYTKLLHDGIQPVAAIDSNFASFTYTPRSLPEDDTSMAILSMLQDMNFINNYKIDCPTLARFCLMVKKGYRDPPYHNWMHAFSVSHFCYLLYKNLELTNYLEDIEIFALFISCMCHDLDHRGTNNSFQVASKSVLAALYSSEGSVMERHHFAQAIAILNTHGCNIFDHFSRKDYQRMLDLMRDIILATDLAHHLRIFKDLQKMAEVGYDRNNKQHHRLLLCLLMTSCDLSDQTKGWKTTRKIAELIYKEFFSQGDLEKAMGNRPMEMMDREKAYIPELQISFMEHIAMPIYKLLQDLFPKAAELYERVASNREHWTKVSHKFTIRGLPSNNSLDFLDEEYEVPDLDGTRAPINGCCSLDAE
Chain of Rhesus PDE2A3 (B3VTJ2 1-941): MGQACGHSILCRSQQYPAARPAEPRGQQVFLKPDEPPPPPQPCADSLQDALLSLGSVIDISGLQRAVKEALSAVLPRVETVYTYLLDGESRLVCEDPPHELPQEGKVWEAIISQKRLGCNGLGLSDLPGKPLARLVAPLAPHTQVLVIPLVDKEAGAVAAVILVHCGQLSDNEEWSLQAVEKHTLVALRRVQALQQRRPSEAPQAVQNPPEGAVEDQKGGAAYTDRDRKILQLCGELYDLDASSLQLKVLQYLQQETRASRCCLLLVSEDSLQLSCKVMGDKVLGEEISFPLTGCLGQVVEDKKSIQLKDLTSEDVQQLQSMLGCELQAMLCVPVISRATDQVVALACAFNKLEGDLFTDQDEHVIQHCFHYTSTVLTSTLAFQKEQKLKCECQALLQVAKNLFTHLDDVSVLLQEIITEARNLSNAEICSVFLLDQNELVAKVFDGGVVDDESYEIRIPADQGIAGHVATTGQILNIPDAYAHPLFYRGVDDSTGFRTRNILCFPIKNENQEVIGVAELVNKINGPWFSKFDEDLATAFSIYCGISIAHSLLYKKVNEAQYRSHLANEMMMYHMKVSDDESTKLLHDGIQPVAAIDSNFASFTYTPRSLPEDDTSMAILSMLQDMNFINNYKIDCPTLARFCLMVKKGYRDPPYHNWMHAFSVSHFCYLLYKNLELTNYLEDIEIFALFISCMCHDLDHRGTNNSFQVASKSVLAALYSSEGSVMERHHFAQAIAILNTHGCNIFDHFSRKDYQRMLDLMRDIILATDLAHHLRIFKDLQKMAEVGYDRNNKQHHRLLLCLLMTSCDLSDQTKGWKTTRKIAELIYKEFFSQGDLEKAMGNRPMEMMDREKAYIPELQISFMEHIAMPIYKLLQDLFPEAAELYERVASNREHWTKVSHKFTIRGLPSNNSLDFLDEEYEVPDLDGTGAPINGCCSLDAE
Chain of P-glycoprotein (P-gp, rat Mdr1a) (Q6PSM0 1-1272): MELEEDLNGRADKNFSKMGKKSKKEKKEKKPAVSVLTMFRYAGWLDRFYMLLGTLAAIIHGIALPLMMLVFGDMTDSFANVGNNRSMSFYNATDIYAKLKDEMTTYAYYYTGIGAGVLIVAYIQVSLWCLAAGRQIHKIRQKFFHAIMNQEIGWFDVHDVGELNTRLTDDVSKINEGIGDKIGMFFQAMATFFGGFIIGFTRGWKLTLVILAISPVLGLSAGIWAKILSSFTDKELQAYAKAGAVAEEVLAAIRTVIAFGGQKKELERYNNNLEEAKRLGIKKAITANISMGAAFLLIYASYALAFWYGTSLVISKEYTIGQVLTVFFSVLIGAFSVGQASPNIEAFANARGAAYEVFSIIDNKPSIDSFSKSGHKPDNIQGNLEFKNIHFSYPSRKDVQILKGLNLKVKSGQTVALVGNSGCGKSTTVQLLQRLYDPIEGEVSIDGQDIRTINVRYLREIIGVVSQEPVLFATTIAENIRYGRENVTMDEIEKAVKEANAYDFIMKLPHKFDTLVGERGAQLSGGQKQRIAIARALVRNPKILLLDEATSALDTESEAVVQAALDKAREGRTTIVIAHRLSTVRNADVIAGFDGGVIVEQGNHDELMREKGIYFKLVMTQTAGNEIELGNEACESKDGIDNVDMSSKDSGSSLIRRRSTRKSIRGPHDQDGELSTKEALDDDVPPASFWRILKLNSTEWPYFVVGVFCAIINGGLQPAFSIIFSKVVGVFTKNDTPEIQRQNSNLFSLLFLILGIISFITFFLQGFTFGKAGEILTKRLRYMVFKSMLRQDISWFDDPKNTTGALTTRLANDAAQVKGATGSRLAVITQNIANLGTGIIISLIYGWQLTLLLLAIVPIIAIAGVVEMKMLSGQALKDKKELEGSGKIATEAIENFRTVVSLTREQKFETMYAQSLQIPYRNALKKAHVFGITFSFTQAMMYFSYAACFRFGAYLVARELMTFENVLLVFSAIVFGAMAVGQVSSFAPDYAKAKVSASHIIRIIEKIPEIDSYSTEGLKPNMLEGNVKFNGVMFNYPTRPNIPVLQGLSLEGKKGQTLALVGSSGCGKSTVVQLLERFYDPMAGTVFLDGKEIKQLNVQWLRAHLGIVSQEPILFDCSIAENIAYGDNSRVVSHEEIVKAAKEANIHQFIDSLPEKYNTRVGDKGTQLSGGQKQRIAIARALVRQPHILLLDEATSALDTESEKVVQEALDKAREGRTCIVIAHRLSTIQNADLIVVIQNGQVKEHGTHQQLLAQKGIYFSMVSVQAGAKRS
Chain of P-glycoprotein (P-gp) (P08183 whole entry): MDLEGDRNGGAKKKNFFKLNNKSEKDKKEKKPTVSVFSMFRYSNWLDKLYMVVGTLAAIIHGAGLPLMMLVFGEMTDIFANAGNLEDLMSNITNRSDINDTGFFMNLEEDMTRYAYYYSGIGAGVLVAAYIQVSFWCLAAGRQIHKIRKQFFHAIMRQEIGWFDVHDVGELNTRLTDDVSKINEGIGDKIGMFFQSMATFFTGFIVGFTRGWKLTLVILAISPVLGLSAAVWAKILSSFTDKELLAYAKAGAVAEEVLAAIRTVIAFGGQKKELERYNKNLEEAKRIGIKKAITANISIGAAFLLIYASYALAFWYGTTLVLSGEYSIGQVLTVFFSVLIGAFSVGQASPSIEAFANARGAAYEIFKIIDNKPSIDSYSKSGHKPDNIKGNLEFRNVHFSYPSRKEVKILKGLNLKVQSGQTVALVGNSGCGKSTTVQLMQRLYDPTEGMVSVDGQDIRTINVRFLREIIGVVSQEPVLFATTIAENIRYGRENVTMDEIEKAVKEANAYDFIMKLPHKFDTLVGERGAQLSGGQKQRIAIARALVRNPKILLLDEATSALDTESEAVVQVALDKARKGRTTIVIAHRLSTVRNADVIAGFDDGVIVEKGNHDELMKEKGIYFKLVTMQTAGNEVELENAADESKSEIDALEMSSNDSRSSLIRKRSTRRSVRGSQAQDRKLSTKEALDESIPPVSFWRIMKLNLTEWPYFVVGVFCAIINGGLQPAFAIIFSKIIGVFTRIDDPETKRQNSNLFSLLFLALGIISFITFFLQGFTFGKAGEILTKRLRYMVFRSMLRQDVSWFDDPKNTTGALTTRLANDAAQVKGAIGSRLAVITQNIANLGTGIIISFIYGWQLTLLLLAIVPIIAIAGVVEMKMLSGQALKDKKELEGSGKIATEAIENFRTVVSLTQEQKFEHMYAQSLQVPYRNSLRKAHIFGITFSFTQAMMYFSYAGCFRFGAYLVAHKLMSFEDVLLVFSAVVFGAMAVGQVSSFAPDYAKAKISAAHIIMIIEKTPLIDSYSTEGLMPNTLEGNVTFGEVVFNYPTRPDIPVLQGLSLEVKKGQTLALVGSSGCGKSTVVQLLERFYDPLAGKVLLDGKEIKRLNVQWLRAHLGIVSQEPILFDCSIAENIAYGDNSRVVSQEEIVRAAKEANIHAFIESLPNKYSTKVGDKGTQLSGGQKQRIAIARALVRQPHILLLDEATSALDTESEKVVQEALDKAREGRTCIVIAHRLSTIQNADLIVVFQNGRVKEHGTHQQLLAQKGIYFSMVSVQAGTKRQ

SMILES | Ki [1, 5] [nM] | Ki [2, 6] [nM] | efflux ratio at 1 μM [3] | efflux ratio at 1 μM [4] | Ki [1, 7] [nM] | Ki [2, 8] [nM]
CN(C)c1nc(C(=O)NC(C)(C)c2ccc(C(F)(F)F)c(F)c2)cc(=O)[nH]1 [Example 93, 2-(dimethylamino)-N-{1-[3-fluoro-4-(trifluoromethyl)phenyl]-1-methylethyl}-6-oxo-1,6-dihydropyrimidine-4-carboxamide] | 4 | 3.8 | 0.3 | 1.9 |  | 
CN(C)c1nc(C(=O)NC2(c3ccc(C(F)(F)F)c(F)c3)CC2)cc(=O)[nH]1 [Example 94, 2-(dimethylamino)-N-{1-[3-fluoro-4-(trifluoromethyl)phenyl]cyclopropyl}-6-oxo-1,6-dihydropyrimidine-4-carboxamide] | 1.2 | 0.9 | 0.5 | 2.6 | 0.8 | 0.96
CC(C)[C@@H](NC(=O)c1cc(=O)[nH]c(N2CCCC2)n1)c1ccc(C(F)(F)F)cc1 [Example 95, N-{(1R)-2-methyl-1-[4-(trifluoromethyl)phenyl]propyl}-6-oxo-2-pyrrolidin-1-yl-1,6-dihydropyrimidine-4-carboxamide] | 0.39 | 0.18 | 1 | 4.5 |  | 
C[C@@H](NC(=O)c1cc(=O)[nH]c(N(C)C)n1)c1ccc(SC(F)(F)F)c(F)c1 [Example 96, 2-(dimethylamino)-N-[(1R)-1-{3-fluoro-4-[(trifluoromethyl)sulfanyl]phenyl}ethyl]-6-oxo-1,6-dihydropyrimidine-4-carboxamide] | 0.36 | 0.2 | 0.5 | 2.5 |  | 
CN(C)c1nc(C(=O)N[C@@H](c2ccc(SC(F)(F)F)c(F)c2)C2CC2)cc(=O)[nH]1 [Example 97, N-[(R)-cyclopropyl{3-fluoro-4-[(trifluoromethyl)sulfanyl]phenyl}methyl]-2-(dimethylamino)-6-oxo-1,6-dihydropyrimidine-4-carboxamide] | 0.62 | 0.34 | 0.4 | 1.8 |  | 
CC[C@@H](NC(=O)c1cc(=O)[nH]c(N(C)C)n1)c1ccc(SC(F)(F)F)c(F)c1 [Example 98, 2-(dimethylamino)-N-[(1R)-1-{3-fluoro-4-[(trifluoromethyl)sulfanyl]phenyl}propyl]-6-oxo-1,6-dihydropyrimidine-4-carboxamide] | 0.54 | 0.23 | 0.4 | 3 |  | 
O=C(N[C@@H](c1ccc(S(F)(F)(F)(F)F)cc1)C1CC1)c1cc(=O)[nH]c(N2CCCC2)n1 [Example 99, N-{(R)-cyclopropyl[4-(pentafluoro-λ^6-sulfanyl)phenyl]methyl}-6-oxo-2-pyrrolidin-1-yl-1,6-dihydropyrimidine-4-carboxamide] |  |  | 0.7 | 5.8 | 1.1 | 1.1
CN(C)c1nc(C(=O)N[C@@H](c2ccc(OC(F)(F)F)cc2)C(C)(C)C)cc(=O)[nH]1 [Example 100, 2-(dimethylamino)-N-{(1R)-2,2-dimethyl-1-[4-(trifluoromethoxy)phenyl]propyl}-6-oxo-1,6-dihydropyrimidine-4-carboxamide] |  |  | 0.7 | 2.9 | 0.17 | 0.21
CN(C)c1nc(C(=O)N[C@@H](c2ccc(OC(F)(F)F)c(F)c2)C(C)(C)C)cc(=O)[nH]1 [Example 101, 2-(dimethylamino)-N-{(1R)-1-[3-fluoro-4-(trifluoromethoxy)phenyl]-2,2-dimethylpropyl}-6-oxo-1,6-dihydropyrimidine-4-carboxamide] |  |  | 1.7 | 10.1 | 0.14 | 0.12
CN(C)c1nc(C(=O)N[C@@H](c2ccc(C(F)(F)F)c(F)c2)C(C)(C)C)cc(=O)[nH]1 [Example 102, 2-(dimethylamino)-N-{(1R)-1-[3-fluoro-4-(trifluoromethyl)phenyl]-2,2-dimethylpropyl}-6-oxo-1,6-dihydropyrimidine-4-carboxamide] |  |  | 1.4 | 5.7 | 0.18 | 0.2
CN(C)c1nc(C(=O)N[C@@H](c2ccc(SC(F)(F)F)cc2)C(C)(C)C)cc(=O)[nH]1 [Example 103, 2-(dimethylamino)-N-[(1R)-2,2-dimethyl-1-{4-[(trifluoromethyl)sulfanyl]phenyl}propyl]-6-oxo-1,6-dihydropyrimidine-4-carboxamide] |  |  | 2.2 | 8.2 | 0.12 | 0.12
CC[C@@H](NC(=O)c1cc(=O)[nH]c(N(C)C)n1)c1ccc(OC(F)(F)F)c(F)c1 [Example 104, 2-(dimethylamino)-N-{(1R)-1-[3-fluoro-4-(trifluoromethoxy)phenyl]propyl}-6-oxo-1,6-dihydropyrimidine-4-carboxamide] | 0.56 |  | 0.6 | 4.2 | 1.1 | 1.1
CC[C@@H](NC(=O)c1cc(=O)[nH]c(N(C)C)n1)c1ccc(OC(F)(F)F)cc1 [Example 105, 2-(dimethylamino)-6-oxo-N-{(1R)-1-[4-(trifluoromethoxy)phenyl]propyl}-1,6-dihydropyrimidine-4-carboxamide] | 1 |  | 0.5 | 3.7 | 1.8 | 1.6
CC[C@@H](NC(=O)c1cc(=O)[nH]c(N(C)C)n1)c1ccc(C(F)(F)F)c(F)c1 [Example 106, 2-(dimethylamino)-N-{(1R)-1-[3-fluoro-4-(trifluoromethyl)phenyl]propyl}-6-oxo-1,6-dihydropyrimidine-4-carboxamide] | 0.81 |  | 0.5 | 3.5 | 1.4 | 1.3
CN(C)c1nc(C(=O)N[C@@H](c2ccc(OC(F)(F)F)cc2)C2CC2)cc(=O)[nH]1 [Example 107, N-{(1R)-cyclopropyl[4-(trifluoromethoxy)phenyl]methyl}-2-(dimethylamino)-6-oxo-1,6-dihydropyrimidine-4-carboxamide] | 0.93 |  | 0.4 | 2.2 | 2.2 | 1.7
CN(C)c1nc(C(=O)N[C@@H](c2ccc(C(F)(F)F)cc2)C2CC2)cc(=O)[nH]1 [Example 108, N-{(1R)-cyclopropyl[4-(trifluoromethyl)phenyl]methyl}-2-(dimethylamino)-6-oxo-1,6-dihydropyrimidine-4-carboxamide] | 0.66 |  | 0.4 | 1.9 | 1.3 | 1.8
CN(C)c1nc(C(=O)N[C@@H](c2ccc(C(F)(F)F)c(F)c2)C2CC2)cc(=O)[nH]1 [Example 109, N-{(1R)-cyclopropyl[3-fluoro-4-(trifluoromethyl)phenyl]methyl}-2-(dimethylamino)-6-oxo-1,6-dihydropyrimidine-4-carboxamide] | 0.91 |  | 0.5 | 2.5 | 1.4 | 1.9
